Results from patent US7879911B2 (priority 2007, dated 2011).

Molecular target: Lethal factor protease (Bacillus anthracis, UniProt P15917)
Test: biochemical
Details: LF (FRET) Ki^app

Lethal factor protease, sequence (P15917 34-809 limits assumed): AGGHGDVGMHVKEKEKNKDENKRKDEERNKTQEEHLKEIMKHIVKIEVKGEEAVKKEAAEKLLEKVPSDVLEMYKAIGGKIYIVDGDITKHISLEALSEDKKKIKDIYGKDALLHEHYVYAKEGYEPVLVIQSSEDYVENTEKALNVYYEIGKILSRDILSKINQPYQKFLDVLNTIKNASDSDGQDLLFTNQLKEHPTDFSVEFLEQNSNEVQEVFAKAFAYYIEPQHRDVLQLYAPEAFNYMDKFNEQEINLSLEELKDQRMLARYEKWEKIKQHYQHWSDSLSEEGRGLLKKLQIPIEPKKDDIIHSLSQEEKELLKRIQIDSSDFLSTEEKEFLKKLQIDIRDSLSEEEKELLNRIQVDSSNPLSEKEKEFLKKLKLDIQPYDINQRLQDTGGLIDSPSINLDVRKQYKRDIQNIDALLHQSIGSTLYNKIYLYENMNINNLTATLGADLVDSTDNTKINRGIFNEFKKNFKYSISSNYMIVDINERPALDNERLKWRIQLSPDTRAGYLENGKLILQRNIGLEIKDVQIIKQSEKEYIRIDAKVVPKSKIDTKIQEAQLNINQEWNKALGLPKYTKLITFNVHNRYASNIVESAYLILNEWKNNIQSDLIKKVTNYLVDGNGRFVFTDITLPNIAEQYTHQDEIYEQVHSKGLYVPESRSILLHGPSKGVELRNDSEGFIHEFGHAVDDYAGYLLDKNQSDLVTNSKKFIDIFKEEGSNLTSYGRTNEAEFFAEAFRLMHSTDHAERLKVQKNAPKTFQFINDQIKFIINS

`O=C(NO)[C@@H](CCCCOCc1ccccc1)Oc1ccc(F)c(Cl)c1` [Compound 168187] and `O=C(NO)[C@@H](C/C=C\COCc1ccccc1)Oc1ccc(F)c(Cl)c1` [Compound 168160, (R,Z)-6-(benzyloxy)-2-(3-chloro-4-fluorophenoxy)-N-hydroxyhex-4-enamide] are within 1.5-fold of each other in Ki: 1070 nM for the first, 1250 nM for the second.

`O=C(COc1ccc(F)c(F)c1)NO` [Compound 168130, 2-(3,4-difluorophenoxy)-N-hydroxyacetamide] and `O=C(COc1ccc(F)c(Cl)c1)NO` [Compound 168127, 2-(3-chloro-4-fluorophenoxy)-N-hydroxyacetamide] are within 1.5-fold of each other in Ki: 26200 nM for the first, 31200 nM for the second.

Compared with `Cc1cc(CNCCCC[C@@H](Oc2cc(C)c(F)c(C)c2)C(=O)NO)ccc1F` [Compound 168100, (R)-2-(4-fluoro-3,5-dimethylphenoxy)-6-(4-fluoro-3-methylbenzylamino)-N-hydroxyhexanamide], `Cc1cc(COCCCC[C@@H](Oc2cc(C)c(F)c(C)c2)C(=O)NO)ccc1F` [Compound 168135, (R)-2-(4-fluoro-3,5-dimethylphenoxy)-6-(4-fluoro-3-methylbenzyloxy)-N-hydroxyhexanamide] is 5.2-fold higher in Ki: 580 nM for the first, 3030 nM for the second.

`O=C(COc1ccc(Cl)cc1)NO` [Compound 168129, 2-(4-chlorophenoxy)-N-hydroxyacetamide] and `O=C(COc1ccc(F)cc1)NO` [Compound 168128, 2-(4-fluorophenoxy)-N-hydroxyacetamide] are within 1.5-fold of each other in Ki: 83900 nM for the first, 61100 nM for the second.

Compared with `Cc1cc(COCCCC[C@@H](Oc2ccc(F)c(C)c2)C(=O)NO)ccc1F` [Compound 168113, (R)-6-(4-Fluoro-3-methylbenzyloxy)-2-(4-fluoro-3-methylphenoxy)-N-hydroxyhexanamide], `Cc1cc(CNCCCC[C@@H](Oc2ccc(F)c(C)c2)C(=O)NO)ccc1F` [Compound 168097, (R)-6-(4-Fluoro-3-methylbenzylamino)-2-(4-fluoro-3-methylphenoxy)-N-hydroxyhexanamide] is 2.6-fold lower in Ki: 540 nM for the first, 210 nM for the second.

Compared with `CCCCC(Sc1ccc(F)c(C)c1)C(=O)NO` (stereo not shown) [Compound 167303, 2-(4-Fluoro-3-methyl-phenylsulfanyl)-hexanoic acid hydroxyamide], `CCCCC(Oc1ccc(F)c(C)c1)C(=O)NO` (stereo not shown) [Compound 167163, 2-(4-Fluoro-3-methyl-phenoxy)-hexanoic acid hydroxyamide] is 2.2-fold higher in Ki: 2500 nM for the first, 5500 nM for the second. The first binds more tightly here.

Compared with `Cc1cc(CCCN(C)CC[C@@H](Oc2ccc(F)c(C)c2)C(=O)NO)ccc1F` [Compound 168142, (R)-2-(4-fluoro-3-methylphenoxy)-4-((3-(4-fluoro-3-methylphenyl)propyl)(methyl)amino)-N-hydroxybutanamide], `Cc1cc(O[C@H](CCCCO)C(=O)NO)ccc1F` [Compound 168176, (R)-2-(4-fluoro-3-methylphenoxy)-N,6-dihydroxyhexanamide] is 1.6-fold higher in Ki: 1120 nM for the first, 1780 nM for the second. The first binds more tightly here.

Compared with `Cc1cc(O[C@H](CCO)C(=O)NO)ccc1F` [Compound 168093, (R)-2-(4-fluoro-3-methylphenoxy)-N,4-dihydroxybutanamide], `CCC[C@@H](Oc1ccc(F)c(C)c1)C(=O)NO` [Compound 168090, (R)-2-(4-Fluoro-3-methyl-phenoxy)-pentanoic acid hydroxyamide] is 6.2-fold lower in Ki: 23100 nM for the first, 3700 nM for the second. The second binds more tightly here.

Going from `Cc1cc(O[C@H](CCN2CCC[C@@H](CN3CCCCC3)C2)C(=O)NO)ccc1F` [Compound 168143, (R)-2-(4-fluoro-3-methylphenoxy)-N-hydroxy-4-((S)-3-(piperidin-1-ylmethyl)piperidin-1-yl)butanamide] to `Cc1cc(O[C@H](CCCCNCC2CC3CCC2C3)C(=O)NO)ccc1F` (stereo partly shown) [Compound 168183], the Ki falls from 1670 nM to 170 nM (9.8-fold). The second binds more tightly here.

Compared with `CCCCC(C(=O)NO)[S+]([O-])c1ccc(F)c(C)c1` (stereo not shown) [Compound 167316, 2-(4-Fluoro-3-methyl-benzenesulfinyl)-hexanoic acid hydroxyamide], `CCCCC(C(=O)NO)S(=O)(=O)c1ccc(F)c(C)c1` (stereo not shown) [Compound 167304, 2-(4-Fluoro-3-methyl-benzenesulfonyl)-hexanoic acid hydroxyamide] is 1.7-fold higher in Ki: 18000 nM for the first, 30000 nM for the second.

Compared with `CCCCC(C(=O)NO)[S+]([O-])c1ccc(F)c(C)c1` (single isomer, unassigned) [Compound 167351, syn-2-(4-Fluoro-3-methyl-benzenesulfinyl)-hexanoic acid hydroxyamide], `Cc1cc(OCC(=O)NO)ccc1F` [Compound 167182, 2-(4-Fluoro-3-methyl-phenoxy)-N-hydroxy-acetamide] is 2.8-fold higher in Ki: 10300 nM for the first, 29200 nM for the second. The first binds more tightly here.

Compared with `Cc1cc(O[C@H](CCCCNCc2ccco2)C(=O)NO)ccc1F` [Compound 168184], `Cc1cc(O[C@H](CCCCNCc2cccs2)C(=O)NO)ccc1F` [Compound 168177, (R)-2-(4-fluoro-3-methylphenoxy)-N-hydroxy-6-(thiophen-2-ylmethylamino)hexanamide] is 3.6-fold lower in Ki: 750 nM for the first, 210 nM for the second.

Compared with `Cc1cc(O[C@H](C/C=C/COCc2ccccc2)C(=O)NO)ccc1F` [Compound 168185], `Cc1cc(O[C@H](CCCCNCc2cccc(-c3ccc(F)cc3)c2)C(=O)NO)ccc1F` [Compound 168178, (R)-2-(4-fluoro-3-methylphenoxy)-6-((4′-fluorobiphenyl-3-yl)methylamino)-N-hydroxyhexanamide] is 5.9-fold lower in Ki: 770 nM for the first, 130 nM for the second.

Compared with `CCCCC(C(=O)NO)[S+]([O-])c1ccc(F)c(C)c1` (single isomer, unassigned) [Compound 167352, anti-2-(4-Fluoro-3-methyl-benzenesulfinyl)-hexanoic acid hydroxyamide], `Cc1cc(OCC(=O)NO)cc(C)c1F` [Compound 168115, 2-(4-Fluoro-3,5-dimethyl-phenoxy)-N-hydroxy-acetamide] is 27-fold lower in Ki: 67000 nM for the first, 2520 nM for the second.
